The values below come from patent publication US6994956B2, “Method for assaying enzyme activity” (Bayer Pharmaceuticals Corporation, priority 2003, dated 2006).

Molecules are shown by their SMILES.

For assay [1], the target named is fatty acid synthase (FAS) (Homo sapiens, UniProt P49327). The experiment in a line: Phase partition assay of fatty acid synthase activity. The assay is classed as biochemical. The following applies: FAS (35 ng), incubated for 90 minutes, conditions of FIG. 1.
Experimental: FAS was incubated at varying concentrations and times at room temperature with 400 μM NADPH, 100 μM acetyl-CoA, and 20 μM malonyl-CoA (0.02 μCi [malonyl-2-^14C]-CoA) in buffer containing 50 mM MOPS (pH 6.8), 5 mM DTT, 1 mM EDTA, and 0.03% BSA in a total volume of 100 μL. The reaction was terminated by the addition of 10 μL of 10 N acetic acid, followed by the addition of 150 μL Microscint™-CAT. The mix was allowed to incubate overnight prior to data acquisition.
Inhibition of FAS by cerulenin. FAS (35 ng) was incubated for 90 minutes with cerulenin under conditions described in FIG. 1.
This method of the present invention permits radiometric detection of FAS activity via a gain of signal assay using [2-^14C]malonyl CoA as the radiolabel and partitioning of the radioactive products (^14C-labeled oleic acid and palmitic acid) into the PPSF (Microscint™-E), following acidification and addition of PPSF to the reaction mixture.
A typical 96-well density reaction is partitioned in the following manner: an enzyme assay inhibitor test mix (100 μL) containing enzyme, substrates, test compounds, and buffer components is incubated at room temperature to generate the fatty acid products. […] Enzyme activity is proportional to the radioactivity in the organic phase as determined by liquid scintillation counting. […]
In assay [2] the target is farnesyl-diphosphate synthase (FPPS) (Homo sapiens, UniProt P14324). The following applies: FPPS (25 ng), incubated for 2 hours, conditions of FIG. 4.
farnesyl-diphosphate synthase (FPPS), sequence (P14324 whole entry): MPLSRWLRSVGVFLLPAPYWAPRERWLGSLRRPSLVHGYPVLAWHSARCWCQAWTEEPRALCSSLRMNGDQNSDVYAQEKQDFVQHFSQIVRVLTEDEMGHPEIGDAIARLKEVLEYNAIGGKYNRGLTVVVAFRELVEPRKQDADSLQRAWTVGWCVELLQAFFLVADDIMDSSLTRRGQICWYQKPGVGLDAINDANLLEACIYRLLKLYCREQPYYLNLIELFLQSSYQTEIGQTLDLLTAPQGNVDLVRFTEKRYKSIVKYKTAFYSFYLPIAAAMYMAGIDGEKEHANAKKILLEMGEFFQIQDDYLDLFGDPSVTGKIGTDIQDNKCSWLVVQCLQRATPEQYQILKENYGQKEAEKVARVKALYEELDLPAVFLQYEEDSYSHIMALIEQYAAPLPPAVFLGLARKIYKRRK
Experimental: Time course and protein dependence of farnesyl-diphosphate synthase (FPPS)-produced product partitioning into the organic phase. FPPS was incubated at varying concentrations and times at room temperature with 5 μM geranyl pyrophosphate (GPP) and 5 μM IPP (0.0125 μCi; [1-^14C]isopentenyl pyrophosphate) in a buffer containing 25 mM HEPES (pH 7.5), 1 mM DTT, and 1 mM MgCl2 in a total volume of 40 μL. The reaction was terminated by the addition of 10 μL of 5% phosphoric acid, followed by 50 μL Microscint™-CAT. The mix was allowed to incubate two hours prior to data acquisition. […]
A typical 384-well density reaction is partitioned with the following proportion of reagents: 40 μL enzyme assay inhibitor test mix containing FPP synthetase, substrates, test compounds, and buffer components is incubated at room temperature to generate farnesyl diphosphate. […] Enzyme activity is proportional to the radioactivity in the organic phase as determined by liquid scintillation counting (LSC). This radioactivity corresponds to products of acid treatment of the enzyme reaction, farnesol and nerolidol, as determined by LSC of authentic [1,2-^14C]trans, trans farnesol. […] The theoretical signal to background of the assay is established by comparing CPMs in the PPSF using equimolar amounts and equal amounts of radioactivity of radiolabeled substrate and product. […]

fatty acid synthase (FAS), sequence (P49327 whole entry, species assumed): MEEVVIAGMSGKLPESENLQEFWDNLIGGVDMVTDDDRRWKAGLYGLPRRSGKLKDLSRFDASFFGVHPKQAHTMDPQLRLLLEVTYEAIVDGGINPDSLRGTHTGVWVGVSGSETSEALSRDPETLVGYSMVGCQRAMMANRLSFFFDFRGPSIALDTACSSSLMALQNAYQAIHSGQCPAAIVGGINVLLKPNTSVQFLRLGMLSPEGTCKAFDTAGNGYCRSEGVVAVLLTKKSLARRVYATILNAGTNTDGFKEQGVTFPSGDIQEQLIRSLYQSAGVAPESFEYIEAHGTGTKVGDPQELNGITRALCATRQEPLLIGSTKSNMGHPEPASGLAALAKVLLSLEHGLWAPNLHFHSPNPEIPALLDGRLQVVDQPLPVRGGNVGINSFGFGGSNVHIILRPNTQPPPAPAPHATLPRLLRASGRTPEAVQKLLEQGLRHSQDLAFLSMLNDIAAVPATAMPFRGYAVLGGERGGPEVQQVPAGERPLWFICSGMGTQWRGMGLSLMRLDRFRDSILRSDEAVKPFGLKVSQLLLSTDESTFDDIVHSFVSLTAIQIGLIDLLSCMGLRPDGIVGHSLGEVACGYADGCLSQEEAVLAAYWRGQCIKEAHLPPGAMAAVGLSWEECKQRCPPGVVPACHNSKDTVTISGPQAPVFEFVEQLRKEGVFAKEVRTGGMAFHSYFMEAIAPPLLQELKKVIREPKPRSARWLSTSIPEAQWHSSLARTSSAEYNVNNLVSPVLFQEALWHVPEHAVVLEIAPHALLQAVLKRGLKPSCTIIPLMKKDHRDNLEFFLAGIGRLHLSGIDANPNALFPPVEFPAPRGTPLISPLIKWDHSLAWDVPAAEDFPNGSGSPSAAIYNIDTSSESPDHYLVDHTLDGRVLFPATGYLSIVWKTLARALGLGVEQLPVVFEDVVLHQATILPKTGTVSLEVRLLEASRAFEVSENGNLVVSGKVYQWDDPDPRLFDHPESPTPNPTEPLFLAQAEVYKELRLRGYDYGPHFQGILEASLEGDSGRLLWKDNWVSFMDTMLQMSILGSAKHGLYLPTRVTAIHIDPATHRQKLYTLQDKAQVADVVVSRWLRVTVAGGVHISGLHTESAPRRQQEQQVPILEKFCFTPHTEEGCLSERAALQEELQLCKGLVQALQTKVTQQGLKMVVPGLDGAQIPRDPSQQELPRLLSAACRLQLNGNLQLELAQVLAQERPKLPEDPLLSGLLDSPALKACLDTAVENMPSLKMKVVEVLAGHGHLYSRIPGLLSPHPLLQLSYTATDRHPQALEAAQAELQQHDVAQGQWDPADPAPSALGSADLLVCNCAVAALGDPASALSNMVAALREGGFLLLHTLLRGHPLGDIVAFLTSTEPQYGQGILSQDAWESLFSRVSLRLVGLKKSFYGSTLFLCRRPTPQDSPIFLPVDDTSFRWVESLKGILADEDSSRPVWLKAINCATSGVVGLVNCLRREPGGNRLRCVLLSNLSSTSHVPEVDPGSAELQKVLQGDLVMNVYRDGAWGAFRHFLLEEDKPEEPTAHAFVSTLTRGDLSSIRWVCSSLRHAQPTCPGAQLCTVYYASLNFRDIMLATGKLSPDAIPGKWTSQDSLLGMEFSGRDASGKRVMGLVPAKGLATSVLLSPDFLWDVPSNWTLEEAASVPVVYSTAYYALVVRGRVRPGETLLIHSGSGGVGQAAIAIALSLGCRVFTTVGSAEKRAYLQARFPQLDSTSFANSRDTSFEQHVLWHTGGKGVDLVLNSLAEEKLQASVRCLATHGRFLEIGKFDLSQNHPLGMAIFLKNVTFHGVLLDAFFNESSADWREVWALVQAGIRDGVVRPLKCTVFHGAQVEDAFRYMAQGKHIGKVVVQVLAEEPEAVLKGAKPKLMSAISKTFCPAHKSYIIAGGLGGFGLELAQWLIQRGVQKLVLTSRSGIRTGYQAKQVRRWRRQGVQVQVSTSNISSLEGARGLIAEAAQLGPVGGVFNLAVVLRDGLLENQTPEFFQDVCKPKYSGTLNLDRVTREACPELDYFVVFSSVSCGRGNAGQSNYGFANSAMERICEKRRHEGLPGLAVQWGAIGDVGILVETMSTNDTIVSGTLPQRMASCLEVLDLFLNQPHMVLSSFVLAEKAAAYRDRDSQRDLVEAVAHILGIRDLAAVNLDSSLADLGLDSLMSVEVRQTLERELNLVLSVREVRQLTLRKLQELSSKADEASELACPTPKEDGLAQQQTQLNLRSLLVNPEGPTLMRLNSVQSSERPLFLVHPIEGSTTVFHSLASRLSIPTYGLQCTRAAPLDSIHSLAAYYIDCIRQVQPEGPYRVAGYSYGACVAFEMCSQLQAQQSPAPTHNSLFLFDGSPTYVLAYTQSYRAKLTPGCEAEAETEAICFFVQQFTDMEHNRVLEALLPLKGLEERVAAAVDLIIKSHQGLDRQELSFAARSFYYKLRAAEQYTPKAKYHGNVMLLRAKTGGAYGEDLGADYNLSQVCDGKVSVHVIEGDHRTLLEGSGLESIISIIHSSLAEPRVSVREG

Take `C/C=C/C/C=C/CCC(=O)[C@H]1O[C@H]1C(N)=O` [cerulenin]: the “Inhibition of FAS” value in assay [1] is “Inhibition”.

Regarding `NCCCC(O)(P(=O)(O)O)P(=O)(O)O` [alendronate], the “Inhibition of FPPS” value in assay [2] was “Inhibition”.
